Laboratory results from PubChem BioAssay AID1259407 (Chemical Carcinogenesis Research Information System (CCRIS), 2018).
Activity calls are given as the source filed them. How the calls were made is not given here.

Test system: CCRIS mutagenicity, Ames/micronucleus/aberration tests
Assay: CCRIS mutagenicity studies
[1] = Test System: AMES SALMONELLA TYPHIMURIUM, Strain/Indicator: TA98, Metabolic Activation: NONE, Method: PREINCUBATION
[2] = Test System: AMES SALMONELLA TYPHIMURIUM, Strain/Indicator: TA98, Metabolic Activation: NONE, Method: STANDARD PLATE
[3] = Test System: AMES SALMONELLA TYPHIMURIUM, Strain/Indicator: TA100, Metabolic Activation: NONE, Method: PREINCUBATION
[4] = Test System: AMES SALMONELLA TYPHIMURIUM, Strain/Indicator: TA100, Metabolic Activation: NONE, Method: STANDARD PLATE
[5] = Test System: AMES SALMONELLA TYPHIMURIUM, Strain/Indicator: TA1535, Metabolic Activation: NONE, Method: PREINCUBATION

Measured: mutagenic call

COCCO
inactive: Test System: AMES SALMONELLA TYPHIMURIUM, Strain/Indicator: TA97, Metabolic Activation: HAMSTER, LIVER, S-9, AROCLOR 1254 (10 OR 30%), Method: PREINCUBATION inactive; negative | Test System: AMES SALMONELLA TYPHIMURIUM, Strain/Indicator: TA97, Metabolic Activation: NONE, Method: PREINCUBATION inactive; negative | Test System: AMES SALMONELLA TYPHIMURIUM, Strain/Indicator: TA97, Metabolic Activation: RAT, LIVER, S-9, AROCLOR 1254 (10 OR 30%), Method: PREINCUBATION inactive; negative | Test System: AMES SALMONELLA TYPHIMURIUM, Strain/Indicator: TA97A, Metabolic Activation: NONE, Method: STANDARD PLATE inactive; negative | Test System: AMES SALMONELLA TYPHIMURIUM, Strain/Indicator: TA97A, Metabolic Activation: RAT, LIVER, S-9, AROCLOR 1254, Method: STANDARD PLATE inactive; negative | Test System: AMES SALMONELLA TYPHIMURIUM, Strain/Indicator: TA98, Metabolic Activation: HAMSTER, LIVER, S-9, AROCLOR 1254 (10 OR 30%), Method: PREINCUBATION inactive; negative | [1] inactive; negative | [2] inactive; negative | Test System: AMES SALMONELLA TYPHIMURIUM, Strain/Indicator: TA98, Metabolic Activation: RAT, LIVER, S-9, AROCLOR 1254 (10 OR 30%), Method: PREINCUBATION inactive; negative | Test System: AMES SALMONELLA TYPHIMURIUM, Strain/Indicator: TA98, Metabolic Activation: RAT, LIVER, S-9, AROCLOR 1254, Method: STANDARD PLATE inactive; negative | Test System: AMES SALMONELLA TYPHIMURIUM, Strain/Indicator: TA100, Metabolic Activation: HAMSTER, LIVER, S-9, AROCLOR 1254 (10 OR 30%), Method: PREINCUBATION inactive; negative | [3] inactive; negative | [4] inactive; negative | Test System: AMES SALMONELLA TYPHIMURIUM, Strain/Indicator: TA100, Metabolic Activation: RAT, LIVER, S-9, AROCLOR 1254 (10 OR 30%), Method: PREINCUBATION inactive; negative | Test System: AMES SALMONELLA TYPHIMURIUM, Strain/Indicator: TA100, Metabolic Activation: RAT, LIVER, S-9, AROCLOR 1254, Method: STANDARD PLATE inactive; negative | Test System: AMES SALMONELLA TYPHIMURIUM, Strain/Indicator: TA102, Metabolic Activation: NONE, Method: STANDARD PLATE inactive; negative | Test System: AMES SALMONELLA TYPHIMURIUM, Strain/Indicator: TA102, Metabolic Activation: RAT, LIVER, S-9, AROCLOR 1254, Method: STANDARD PLATE inactive; negative | Test System: AMES SALMONELLA TYPHIMURIUM, Strain/Indicator: TA1535, Metabolic Activation: HAMSTER, LIVER, S-9, AROCLOR 1254 (10 OR 30%), Method: PREINCUBATION inactive; negative | [5] inactive; negative | Test System: AMES SALMONELLA TYPHIMURIUM, Strain/Indicator: TA1535, Metabolic Activation: RAT, LIVER, S-9, AROCLOR 1254 (10 OR 30%), Method: PREINCUBATION inactive; negative | Test System: CHINESE HAMSTER OVARY, Strain/Indicator: CHO AS52 (GPT)/6-THIOGUANINE, Metabolic Activation: NONE inactive; negative | Test System: CHINESE HAMSTER OVARY, Strain/Indicator: CHO-AS52/6-THIOGUANINE, Metabolic Activation: NONE inactive; negative | Test System: CHINESE HAMSTER OVARY, Strain/Indicator: CHO-K1-BH4 (HGPRT)/6-THIOGUANINE, Metabolic Activation: NONE inactive; negative | Test System: CHINESE HAMSTER OVARY, Strain/Indicator: CHO-K1-BH4 (HGPRT)/6-THIOGUANINE, Metabolic Activation: RAT, LIVER, S-9, AROCLOR 1254 inactive; negative

Cc1ccc(-c2nc3ccccc3o2)cc1
inactive: [2] inactive; negative | Test System: AMES SALMONELLA TYPHIMURIUM, Strain/Indicator: TA98, Metabolic Activation: S-9, Method: STANDARD PLATE inactive; negative

CCC1(CC(=O)O)OCCc2c1[nH]c1c(C)cccc21 (stereo unspecified)
inactive: [2] inactive; negative | Test System: AMES SALMONELLA TYPHIMURIUM, Strain/Indicator: TA98, Metabolic Activation: RAT, LIVER, S-9, Method: STANDARD PLATE inactive; negative | [4] inactive; negative | Test System: AMES SALMONELLA TYPHIMURIUM, Strain/Indicator: TA100, Metabolic Activation: RAT, LIVER, S-9, Method: STANDARD PLATE inactive; negative | Test System: AMES SALMONELLA TYPHIMURIUM, Strain/Indicator: TA1535, Metabolic Activation: NONE, Method: STANDARD PLATE inactive; negative | Test System: AMES SALMONELLA TYPHIMURIUM, Strain/Indicator: TA1535, Metabolic Activation: RAT, LIVER, S-9, Method: STANDARD PLATE inactive; negative | Test System: AMES SALMONELLA TYPHIMURIUM, Strain/Indicator: TA1537, Metabolic Activation: NONE, Method: STANDARD PLATE inactive; negative | Test System: AMES SALMONELLA TYPHIMURIUM, Strain/Indicator: TA1537, Metabolic Activation: RAT, LIVER, S-9, Method: STANDARD PLATE inactive; negative | Test System: E. COLI, Strain/Indicator: WP2 UVRA, Metabolic Activation: NONE, Method: STANDARD PLATE inactive; negative | Test System: E. COLI, Strain/Indicator: WP2 UVRA, Metabolic Activation: RAT, LIVER, S-9, Method: STANDARD PLATE inactive; negative

CCCCCCCCO
inactive: [1] inactive; negative | Test System: AMES SALMONELLA TYPHIMURIUM, Strain/Indicator: TA98, Metabolic Activation: RAT, LIVER, S-9, PHENOBARBITAL AND BETA-NAPHTHOFLAVONE, Method: PREINCUBATION inactive; negative | [3] inactive; negative | Test System: AMES SALMONELLA TYPHIMURIUM, Strain/Indicator: TA100, Metabolic Activation: RAT, LIVER, S-9, PHENOBARBITAL AND BETA-NAPHTHOFLAVONE, Method: PREINCUBATION inactive; negative | Test System: AMES SALMONELLA TYPHIMURIUM, Strain/Indicator: TA100, Metabolic Activation: RAT, LIVER, S-9, SODIUM PHENOBARBITAL AND 5,6-BENZOFLAVONE, Method: PREINCUBATION inactive; negative | Test System: AMES SALMONELLA TYPHIMURIUM, Strain/Indicator: TA102, Metabolic Activation: NONE, Method: PREINCUBATION inactive; negative | Test System: AMES SALMONELLA TYPHIMURIUM, Strain/Indicator: TA102, Metabolic Activation: RAT, LIVER, S-9, PHENOBARBITAL AND BETA-NAPHTHOFLAVONE, Method: PREINCUBATION inactive; negative | Test System: AMES SALMONELLA TYPHIMURIUM, Strain/Indicator: TA102, Metabolic Activation: RAT, LIVER, S-9, SODIUM PHENOBARBITAL AND 5,6-BENZOFLAVONE, Method: PREINCUBATION inactive; negative | Test System: AMES SALMONELLA TYPHIMURIUM, Strain/Indicator: TA104, Metabolic Activation: NONE, Method: PREINCUBATION inactive; negative | Test System: AMES SALMONELLA TYPHIMURIUM, Strain/Indicator: TA104, Metabolic Activation: RAT, LIVER, S-9, PHENOBARBITAL AND BETA-NAPHTHOFLAVONE, Method: PREINCUBATION inactive; negative | Test System: AMES SALMONELLA TYPHIMURIUM, Strain/Indicator: TA104, Metabolic Activation: RAT, LIVER, S-9, SODIUM PHENOBARBITAL AND 5,6-BENZOFLAVONE, Method: PREINCUBATION inactive; negative | [5] inactive; negative | Test System: AMES SALMONELLA TYPHIMURIUM, Strain/Indicator: TA1535, Metabolic Activation: RAT, LIVER, S-9, PHENOBARBITAL AND BETA-NAPHTHOFLAVONE, Method: PREINCUBATION inactive; negative | Test System: AMES SALMONELLA TYPHIMURIUM, Strain/Indicator: TA1537, Metabolic Activation: NONE, Method: PREINCUBATION inactive; negative | Test System: AMES SALMONELLA TYPHIMURIUM, Strain/Indicator: TA1537, Metabolic Activation: RAT, LIVER, S-9, PHENOBARBITAL AND BETA-NAPHTHOFLAVONE, Method: PREINCUBATION inactive; negative | Test System: E. COLI, Strain/Indicator: WP2UVRA/PKM101, Metabolic Activation: NONE, Method: PREINCUBATION inactive; negative | Test System: E. COLI, Strain/Indicator: WP2UVRA/PKM101, Metabolic Activation: RAT, LIVER, S-9, PHENOBARBITAL AND BETA-NAPHTHOFLAVONE, Method: PREINCUBATION inactive; negative | Test System: E. COLI, Strain/Indicator: WP2UVRA/PKM101, Metabolic Activation: RAT, LIVER, S-9, SODIUM PHENOBARBITAL AND 5,6-BENZOFLAVONE, Method: PREINCUBATION inactive; negative | Test System: E. COLI, Strain/Indicator: WP2UVRA, Metabolic Activation: NONE, Method: PREINCUBATION inactive; negative | Test System: E. COLI, Strain/Indicator: WP2UVRA, Metabolic Activation: RAT, LIVER, S-9, PHENOBARBITAL AND BETA-NAPHTHOFLAVONE, Method: PREINCUBATION inactive; negative
